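Protocol summary: plate cells (96-well), add compound at 5 concentrations, incubate 48 h, interpolate endpoints linearly. GI50 = concentration required for 50% inhibition of growth. TGI marks complete inhibition of growth.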
Legend:
Test in all cases: NCI tumour cell line growth inhibition, 48 h
HL-60(TB) leukemia = system: HL-60(TB) leukemia
MALME-3M melanoma = system: MALME-3M melanoma
COLO 205 colon = system: COLO 205 colon
HS 578T breast = system: HS 578T breast
SF-295 CNS = system: SF-295 CNS
HOP-92 NSCLC = system: HOP-92 NSCLC
CAKI-1 renal = system: CAKI-1 renal
OVCAR-5 ovarian = system: OVCAR-5 ovarian
K-562 leukemia = system: K-562 leukemia
SR leukemia = system: SR leukemia
HCT-116 colon = system: HCT-116 colon
BT-549 breast = system: BT-549 breast
T-47D breast = system: T-47D breast
RPMI-8226 leukemia = system: RPMI-8226 leukemia
OVCAR-8 ovarian = system: OVCAR-8 ovarian
EKVX NSCLC = system: EKVX NSCLC
NCI/ADR-RES ovarian = system: NCI/ADR-RES ovarian
NCI-H23 lung = system: NCI-H23 lung
SK-OV-3 ovarian = system: SK-OV-3 ovarian
NCI-H522 lung = system: NCI-H522 lung
KM12 colon = system: KM12 colon
RXF 393 renal = system: RXF 393 renal
MCF7 breast = system: MCF7 breast
SF-539 CNS = system: SF-539 CNS
UO-31 renal = system: UO-31 renal
HT29 colon = system: HT29 colon
PC-3 prostate = system: PC-3 prostate
MDA-MB-231 breast = system: MDA-MB-231 breast
OVCAR-4 ovarian = system: OVCAR-4 ovarian
A498 renal = system: A498 renal
NCI-H226 lung = system: NCI-H226 lung
TK-10 renal = system: TK-10 renal
CCRF-CEM leukemia = system: CCRF-CEM leukemia
HOP-62 NSCLC = system: HOP-62 NSCLC
A549 NSCLC = system: A549 NSCLC
U251 CNS = system: U251 CNS
SK-MEL-2 melanoma = system: SK-MEL-2 melanoma
SK-MEL-28 melanoma = system: SK-MEL-28 melanoma
OVCAR-3 ovarian = system: OVCAR-3 ovarian
SNB-75 CNS = system: SNB-75 CNS
SN12C renal = system: SN12C renal
SW-620 colon = system: SW-620 colon
SF-268 CNS = system: SF-268 CNS
NCI-H460 lung = system: NCI-H460 lung
SK-MEL-5 melanoma = system: SK-MEL-5 melanoma
786-0 renal = system: 786-0 renal
M14 melanoma = system: M14 melanoma
DU-145 prostate = system: DU-145 prostate
ACHN renal = system: ACHN renal
UACC-62 melanoma = system: UACC-62 melanoma
MOLT-4 leukemia = system: MOLT-4 leukemia
MDA-MB-435 = system: MDA-MB-435

**Q.** `c1ccc(-c2nc(Nc3ccc(-c4nc5ccccc5[nH]4)cc3)nc(N3CCOCC3)n2)cc1` was tested. Which GI50 (HL-60(TB) leukemia) did it give?
**A.** 31 nM

**Q.** What about the TGI (HL-60(TB) leukemia) of the same molecule?
**A.** 601 nM

**Q.** What about the GI50 (MALME-3M melanoma) of the same molecule?
**A.** 2000 nM

**Q.** What about the TGI (MALME-3M melanoma) of the same molecule?
**A.** 3850 nM

**Q.** What about the GI50 (COLO 205 colon) of the same molecule?
**A.** 1410 nM

**Q.** And the TGI (COLO 205 colon)?
**A.** 3130 nM

**Q.** And the GI50 (HS 578T breast)?
**A.** 1890 nM

**Q.** What about the TGI (HS 578T breast) of the same molecule?
**A.** 6040 nM

**Q.** And the GI50 (SF-295 CNS)?
**A.** 1250 nM

**Q.** And the TGI (SF-295 CNS)?
**A.** 2840 nM

**Q.** What about the GI50 (HOP-92 NSCLC) of the same molecule?
**A.** 1380 nM

**Q.** What about the TGI (HOP-92 NSCLC) of the same molecule?
**A.** 3050 nM

**Q.** What about the GI50 (CAKI-1 renal) of the same molecule?
**A.** 1280 nM

**Q.** What about the TGI (CAKI-1 renal) of the same molecule?
**A.** 2540 nM

**Q.** And the GI50 (OVCAR-5 ovarian)?
**A.** 2160 nM

**Q.** What about the TGI (OVCAR-5 ovarian) of the same molecule?
**A.** 4020 nM

**Q.** And the GI50 (K-562 leukemia)?
**A.** 295 nM

**Q.** What about the TGI (K-562 leukemia) of the same molecule?
**A.** 959 nM

**Q.** What about the GI50 (SR leukemia) of the same molecule?
**A.** 125 nM

**Q.** What about the TGI (SR leukemia) of the same molecule?
**A.** 555 nM

**Q.** What about the GI50 (HCT-116 colon) of the same molecule?
**A.** 394 nM

**Q.** And the TGI (HCT-116 colon)?
**A.** 1620 nM

**Q.** And the GI50 (BT-549 breast)?
**A.** 1980 nM

**Q.** And the TGI (BT-549 breast)?
**A.** 3900 nM

**Q.** What about the GI50 (T-47D breast) of the same molecule?
**A.** 1620 nM

**Q.** What about the TGI (T-47D breast) of the same molecule?
**A.** 3820 nM

**Q.** And the GI50 (RPMI-8226 leukemia)?
**A.** 1110 nM

**Q.** And the TGI (RPMI-8226 leukemia)?
**A.** 4230 nM

**Q.** What about the GI50 (OVCAR-8 ovarian) of the same molecule?
**A.** 1720 nM

**Q.** What about the TGI (OVCAR-8 ovarian) of the same molecule?
**A.** 3410 nM

**Q.** And the GI50 (EKVX NSCLC)?
**A.** 1590 nM

**Q.** And the TGI (EKVX NSCLC)?
**A.** 3420 nM

**Q.** And the GI50 (NCI/ADR-RES ovarian)?
**A.** 1930 nM

**Q.** What about the TGI (NCI/ADR-RES ovarian) of the same molecule?
**A.** 5530 nM

**Q.** What about the GI50 (NCI-H23 lung) of the same molecule?
**A.** 2070 nM

**Q.** What about the TGI (NCI-H23 lung) of the same molecule?
**A.** 4780 nM

**Q.** And the GI50 (SK-OV-3 ovarian)?
**A.** 2110 nM

**Q.** What about the TGI (SK-OV-3 ovarian) of the same molecule?
**A.** 4230 nM

**Q.** And the GI50 (NCI-H522 lung)?
**A.** 2100 nM

**Q.** And the TGI (NCI-H522 lung)?
**A.** 3920 nM

**Q.** And the GI50 (KM12 colon)?
**A.** 1620 nM

**Q.** And the TGI (KM12 colon)?
**A.** 3190 nM

**Q.** And the GI50 (RXF 393 renal)?
**A.** 501 nM

**Q.** What about the TGI (RXF 393 renal) of the same molecule?
**A.** 2120 nM

**Q.** And the GI50 (MCF7 breast)?
**A.** 877 nM

**Q.** And the TGI (MCF7 breast)?
**A.** 2850 nM

**Q.** And the GI50 (SF-539 CNS)?
**A.** 1420 nM

**Q.** What about the TGI (SF-539 CNS) of the same molecule?
**A.** 2940 nM

**Q.** And the GI50 (UO-31 renal)?
**A.** 1320 nM

**Q.** And the TGI (UO-31 renal)?
**A.** 2910 nM

**Q.** What about the GI50 (HT29 colon) of the same molecule?
**A.** 646 nM

**Q.** And the TGI (HT29 colon)?
**A.** 2190 nM

**Q.** What about the GI50 (PC-3 prostate) of the same molecule?
**A.** 1800 nM

**Q.** And the TGI (PC-3 prostate)?
**A.** 3640 nM

**Q.** And the GI50 (MDA-MB-231 breast)?
**A.** 1290 nM

**Q.** And the TGI (MDA-MB-231 breast)?
**A.** 3480 nM

**Q.** And the GI50 (OVCAR-4 ovarian)?
**A.** 1680 nM

**Q.** And the TGI (OVCAR-4 ovarian)?
**A.** 3080 nM

**Q.** What about the GI50 (A498 renal) of the same molecule?
**A.** 1090 nM

**Q.** What about the TGI (A498 renal) of the same molecule?
**A.** 2620 nM

**Q.** And the GI50 (NCI-H226 lung)?
**A.** 2400 nM

**Q.** What about the TGI (NCI-H226 lung) of the same molecule?
**A.** 4580 nM

**Q.** What about the GI50 (TK-10 renal) of the same molecule?
**A.** 2150 nM

**Q.** What about the TGI (TK-10 renal) of the same molecule?
**A.** 3760 nM

**Q.** What about the GI50 (CCRF-CEM leukemia) of the same molecule?
**A.** 545 nM

**Q.** What about the TGI (CCRF-CEM leukemia) of the same molecule?
**A.** 3120 nM

**Q.** What about the GI50 (HOP-62 NSCLC) of the same molecule?
**A.** 1730 nM

**Q.** What about the TGI (HOP-62 NSCLC) of the same molecule?
**A.** 3520 nM

**Q.** And the GI50 (A549 NSCLC)?
**A.** 1950 nM

**Q.** What about the TGI (A549 NSCLC) of the same molecule?
**A.** 4010 nM

**Q.** And the GI50 (U251 CNS)?
**A.** 535 nM

**Q.** What about the TGI (U251 CNS) of the same molecule?
**A.** 1760 nM

**Q.** And the GI50 (SK-MEL-2 melanoma)?
**A.** 1970 nM

**Q.** And the TGI (SK-MEL-2 melanoma)?
**A.** 3590 nM

**Q.** And the GI50 (SK-MEL-28 melanoma)?
**A.** 1560 nM

**Q.** And the TGI (SK-MEL-28 melanoma)?
**A.** 3090 nM

**Q.** And the GI50 (OVCAR-3 ovarian)?
**A.** 1520 nM

**Q.** What about the TGI (OVCAR-3 ovarian) of the same molecule?
**A.** 2980 nM

**Q.** What about the GI50 (SNB-75 CNS) of the same molecule?
**A.** 1630 nM

**Q.** And the TGI (SNB-75 CNS)?
**A.** 3150 nM

**Q.** And the GI50 (SN12C renal)?
**A.** 1740 nM

**Q.** What about the TGI (SN12C renal) of the same molecule?
**A.** 3830 nM

**Q.** And the GI50 (SW-620 colon)?
**A.** 627 nM

**Q.** And the TGI (SW-620 colon)?
**A.** 2170 nM

**Q.** And the GI50 (SF-268 CNS)?
**A.** 1640 nM

**Q.** And the TGI (SF-268 CNS)?
**A.** 3240 nM

**Q.** And the GI50 (NCI-H460 lung)?
**A.** 822 nM

**Q.** And the TGI (NCI-H460 lung)?
**A.** 2460 nM

**Q.** What about the GI50 (SK-MEL-5 melanoma) of the same molecule?
**A.** 1690 nM

**Q.** What about the TGI (SK-MEL-5 melanoma) of the same molecule?
**A.** 3150 nM

**Q.** And the GI50 (786-0 renal)?
**A.** 257 nM

**Q.** What about the TGI (786-0 renal) of the same molecule?
**A.** 1250 nM

**Q.** And the GI50 (M14 melanoma)?
**A.** 1340 nM

**Q.** What about the TGI (M14 melanoma) of the same molecule?
**A.** 2900 nM

**Q.** And the GI50 (DU-145 prostate)?
**A.** 1210 nM

**Q.** What about the TGI (DU-145 prostate) of the same molecule?
**A.** 2490 nM

**Q.** And the GI50 (ACHN renal)?
**A.** 1250 nM

**Q.** What about the TGI (ACHN renal) of the same molecule?
**A.** 2740 nM

**Q.** And the GI50 (UACC-62 melanoma)?
**A.** 1660 nM

**Q.** And the TGI (UACC-62 melanoma)?
**A.** 3480 nM

**Q.** What about the GI50 (MOLT-4 leukemia) of the same molecule?
**A.** 1330 nM

**Q.** And the TGI (MOLT-4 leukemia)?
**A.** 3530 nM

**Q.** And the GI50 (MDA-MB-435)?
**A.** 1760 nM

**Q.** What about the TGI (MDA-MB-435) of the same molecule?
**A.** 3280 nM

From PubChem BioAssay (NCI)
